Test results published in US7863033B2, “Lactobacillus living body activating Lactobacillus preparation and preventive or therapeutic agent for living body infection” (BHPH Company Limited, priority 2003, dated 2011).
Where two headings read alike, the source gives them in different places. Values belong to the compound of their own block, whether it stands above or below them.

Legend:
bacteria in plaque = assay: Live cell counts in plaque soaked in disinfectant (Test Example 4); type: cell-based; settings: 60 minutes of immersion
mouse skin wound = assay: Recovery of mouse skin wounds with bactericidal disinfectants (Test Example 5); type: in vivo
conjunctivitis patients = assay: Treatment of acute infection patients (Example 15, Comparative Example 1); settings: epidemic conjunctivitis; method A: Ofloxacin alone
acute cystitis patients [1] = settings: method A: Cephalexin alone; cited from earlier work
acute cystitis patients [2] = assay: Treatment of acute infection patients (Example 15, Comparative Example 1); settings: method A: minocycline alone 1000 mg/day for 5 days
[3] = tested on: acute bronchitis patients; settings: method A: Cefaclor alone; cited from earlier work
acute colitis patients = assay: Treatment of acute infection patients (Example 15, Comparative Example 1); settings: method A: Cefaclor alone 1000 mg/day for 5 days
[4] = applied every morning and night

SMILES: CC(O)C(=O)O.CCOc1ccc2nc3cc(N)ccc3c(N)c2c1 [Acrinol]
survival of bacteria inside the plaque (bacteria in plaque): half of the cells surviving
Recovery: Complete recovery (coat regrown) (mouse skin wound; [4]): 40 days
Recovery: Skin close to original thickness (mouse skin wound; [4]): 15 days
Recovery: Thin skin overall (mouse skin wound; applied every morning and night to about 1 cm^2 peeled mouse skin): 5 days

Upset of intestinal flora (conjunctivitis patients): −
SMILES: CC1COc2c(N3CCN(C)CC3)c(F)cc3c(=O)c(C(=O)O)cn1c23 (stereo not drawn) [Ofloxacin]

SMILES: CC1=C(C(=O)O)N2C(=O)[C@@H](NC(=O)[C@H](N)c3ccccc3)[C@H]2SC1 [Cephalexin]
Upset of intestinal flora (acute cystitis patients [1]): ++

Upset of intestinal flora (acute cystitis patients [2]): ++
SMILES: CN(C)c1ccc(O)c2c1C[C@H]1C[C@H]3[C@H](N(C)C)C(O)=C(C(N)=O)C(=O)[C@@]3(O)C(O)=C1C2=O [minocycline]

SMILES: N[C@@H](C(=O)N[C@@H]1C(=O)N2C(C(=O)O)=C(Cl)CS[C@H]12)c1ccccc1 [Cefaclor]
Upset of intestinal flora [3]: ++
Upset of intestinal flora (acute colitis patients): ++
